Assay results reported in ChEMBL document CHEMBL3870343, “Synthesis, screening and docking analysis of hispolon analogs as potential antitubercular agents” (2017).
In brackets after ≈: the same amount, converted by molar mass.

Key:
Format in all cases: functional
[1] = system: Mycobacterium tuberculosis; test: Antitubercular activity against Mycobacterium tuberculosis H37Rv ATCC 27294 after 5 days by micro plate alamar blue assay; conditions: H37Rv ATCC 27294, 120 h
[2] = system: Mycobacterium tuberculosis; test: Antitubercular activity against Mycobacterium tuberculosis H37Rv ATCC 27294 assessed as ratio of compound or streptomycin MIC to MIC for compound in presence of streptomycin after 5 days by micro plate alamar blue assay
[3] = system: Mycobacterium tuberculosis; test: Antitubercular activity against Mycobacterium tuberculosis H37Rv ATCC 27294 assessed as ratio of compound or rifampicin MIC to MIC for compound in presence of rifampicin after 5 days by micro plate alamar blue assay
[4] = system: Mycobacterium tuberculosis; test: Antitubercular activity against Mycobacterium tuberculosis H37Rv ATCC 27294 assessed as ratio of compound or ciprofloxacin MIC to MIC for compound in presence of ciprofloxacin after 5 days by micro plate alamar blue assay
[5] = system: Mycobacterium tuberculosis; test: Antitubercular activity against Mycobacterium tuberculosis H37Rv ATCC 27294 assessed as ratio of compound or pyrazinamide MIC to MIC for compound in presence of pyrazinamide after 5 days by micro plate alamar blue assay

`CC(=O)CC(=O)/C=C/c1ccc(O)c(O)c1` gave an MIC [1] of 25 µg/mL (≈ 114 µM).
Work on `COc1cc(CCC(=O)CC(C)=O)ccc1O` yielded an MIC [1] of 6.25 µg/mL (≈ 26.5 µM).
Work on `COc1cc(/C=C/C(=O)CC(C)=O)ccc1O` yielded an MIC [1] of 25 µg/mL (≈ 107 µM).
`CC(=O)CC(=O)/C=C/c1ccc(O)cc1` showed a Ratio [2] of 0.125, a Ratio [3] of 0.062 and a Ratio [4] of 0.062. The Ratio [5] was 0.25 and the MIC [1] was 25 µg/mL (≈ 122 µM).
Work on `COc1ccc(/C=C/C(=O)CC(C)=O)cc1OC` yielded an MIC [1] of 100 µg/mL (≈ 403 µM).
In the case of `COc1ccc(/C=C/C(=O)CC(C)=O)cc1`, the MIC [1] is reported as 50 µg/mL (≈ 229 µM).
Compound `CC(=O)CC(=O)CCc1ccc(O)cc1` has a Ratio [2] of 0.25, a Ratio [3] of 0.062 and a Ratio [4] of 0.031. The Ratio [5] was 0.25 and the MIC [1] was 1.6 µg/mL (≈ 7.76 µM).
In the case of `COc1ccc(CCC(=O)CC(C)=O)cc1`, the MIC [1] is reported as 25 µg/mL (≈ 113 µM).
`COc1ccc(CCC(=O)CC(C)=O)cc1OC` was tested, and the MIC [1] was 100 µg/mL (≈ 400 µM).
For `COc1ccc(CCC(=O)CC(C)=O)c(OC)c1OC`, the MIC [1] was > 100 µg/mL.
For `COc1ccc(/C=C/C(=O)CC(C)=O)c(OC)c1OC`, the MIC [1] was 100 µg/mL (≈ 359 µM).
`CC(=O)CC(=O)CCc1ccc(O)c(O)c1` showed an MIC [1] of 3.12 µg/mL (≈ 14.1 µM).
In the case of `COc1cc(/C=C/C(=O)CC(C)=O)ccc1OC(C)=O`, the MIC [1] is reported as > 100 µg/mL.
For `COc1cc(/C=C/C(=O)CC(C)=O)cc(OC)c1OC`, the MIC [1] was 50 µg/mL (≈ 180 µM).
For `COc1cc(/C=C/C(=O)CC(C)=O)cc(OC)c1OC(C)=O`, the MIC [1] was > 100 µg/mL.
Work on `COc1cc(CCC(=O)CC(C)=O)cc(OC)c1O` yielded an MIC [1] of 12.5 µg/mL (≈ 46.9 µM).
`CC(=O)CC(=O)/C=C/c1ccc(OC(C)=O)cc1` showed an MIC [1] of 100 µg/mL (≈ 406 µM).
`COc1cc(/C=C/C(=O)CC(C)=O)cc(OC)c1O` showed an MIC [1] of 50 µg/mL (≈ 189 µM).
`COc1cc(CCC(=O)CC(C)=O)cc(OC)c1OC(C)=O` was tested, and the MIC [1] was 100 µg/mL (≈ 324 µM).
`COc1cc(OC)c(/C=C/C(=O)CC(C)=O)c(OC)c1` was tested, and the MIC [1] was 100 µg/mL (≈ 359 µM).
Work on `O=C(O)c1cn(C2CC2)c2cc(N3CCNCC3)c(F)cc2c1=O` [CIPROFLOXACIN] yielded an MIC [1] of 3.12 µg/mL (≈ 9.43 µM).
`COc1cc(/C=C/C(=O)CC(=O)/C=C/c2ccc(O)c(OC)c2)ccc1O` [CURCUMIN] was tested, and the MIC [1] was > 100 µg/mL.
Compound `CC[C@@H](CO)NCCN[C@@H](CC)CO` [ETHAMBUTOL] has an MIC [1] of 1.6 µg/mL (≈ 7.83 µM).
`NNC(=O)c1ccncc1` [ISONIAZID] gave an MIC [1] of 0.8 µg/mL (≈ 5.83 µM).
`NC(=O)c1cnccn1` [PYRAZINAMIDE] showed an MIC [1] of 3.12 µg/mL (≈ 25.4 µM).
`CO[C@H]1/C=C/O[C@@]2(C)Oc3c(C)c(O)c4c(O)c(c(/C=N/N5CCN(C)CC5)c(O)c4c3C2=O)NC(=O)/C(C)=C\C=C\[C@H](C)[C@H](O)[C@@H](C)[C@@H](O)[C@@H](C)[C@H](OC(C)=O)[C@@H]1C` [RIFAMPIN] gave an MIC [1] of 1.6 µg/mL (≈ 1.94 µM).
With `CN[C@@H]1[C@H](O[C@H]2[C@H](O[C@H]3[C@H](O)[C@@H](O)[C@H](N=C(N)N)[C@@H](O)[C@@H]3N=C(N)N)O[C@@H](C)[C@]2(O)C=O)O[C@@H](CO)[C@H](O)[C@H]1O` [STREPTOMYCIN] the MIC [1] was 6.25 µg/mL (≈ 10.7 µM).
Work on `C=C/C(C)=C/[C@@]1(C)SC(=O)C(C)=C1O` [THIOLACTOMYCIN] yielded an MIC [1] of 12.5 µg/mL (≈ 59.4 µM).
